In patent US7141560B2, “Alanine 2,6-dialkoxyphenyl ester derivatives as hypnotics” (Akzo Nobel N.V., priority 2001, dated 2006):

Tested on: mice
Test: Hypnotic activity: loss of righting reflex after intravenous injection in mice
Assay type: in vivo
Details: intravenous injection over 10 seconds, dose causing loss of righting reflex for minimum 30 seconds in 50% of treated mice; for ED50: Mus musculus, read-out: HD50 (hypnotic dose50)
Experimental: The hypnotic potency of the alanine 2,6-dialkoxyphenyl ester derivatives of the invention was determined upon their intravenous administration in mice. The dose required to cause a loss of righting reflex for a minimum period of 30 seconds in 50% of treated mice after intravenous injection over 10 seconds was determined. This dose is termed the HD50 (hypnotic dose50) and is expressed in μmol.kg^−1. These in vivo experiments were carried out as described in detail by Anderson et al., J. Med. Chem. 1997, 40, 1668–1681.

| Compound | HD50 (hypnotic dose50) [µmol/kg] | ED50 [µmol/kg] |
| --- | --- | --- |
| 2-[N-(Bis(2-methoxyethyl)amino)]-4-ethoxybutyric acid, 2,6-dimethoxy-4-methylphenyl ester [Example 10v] | 41 |  |
| 2-[N-(Hexahydroazepinyl)]-3-methoxypropionic acid, 2,6-dimethoxyphenyl ester [Example 3d] | 22 |  |
| COCC(C(=O)Oc1c(OC)cccc1OC)N1CCCOCC1 (stereo not shown) [Example 3a, 2-[4-(Hexahydro-1-oxazepinyl)]-3-methoxypropionic acid, 2,6-dimethoxyphenyl ester] | 30 |  |
| COCCN(CCOC)C(COC)C(=O)Oc1c(OC)cccc1OC (stereo not shown) [Example 3b, 2-[N-Bis(2-methoxyethyl)amino]-3-methoxypropionic acid, 2,6-dimethoxyphenyl ester] | 41 |  |
| COCC(C(=O)Oc1c(OC)cccc1OC)N1CCSCC1 (stereo not shown) [Example 3c, 3-Methoxy-2-[N-thiomorpholinyl]propionic acid, 2 ,6-dimethoxyphenyl ester] | 21 |  |
| COCCCN(CCCOC)C(COC)C(=O)Oc1c(OC)cccc1OC (stereo not shown) [Example 3f, 2-[N-Bis(3-methoxypropyl)amino]-3-methoxypropionic acid, 2,6-dimethoxyphenyl ester] | 46 |  |
| CCOCCN(CCOCC)C(COC)C(=O)Oc1c(OC)cccc1OC (stereo not shown) [Example 3g, 2-[N-Bis(3-ethoxyethyl)amino]-3-methoxypropionic acid, 2,6-dimethoxyphenyl ester] | 25 |  |
| COCCN(CCOC)C(COC)C(=O)Oc1c(OC)cc(C)cc1OC (stereo not shown) [Example 3i, 2-[N-Bis(2-methoxyethyl)amino]-3-methoxypropionic acid, 2,6-dimethoxy-4-methylphenyl ester] | 28 |  |
| COCC(C(=O)Oc1c(OC)cc(C)cc1OC)N1CCSCC1 (stereo not shown) [Example 3j, 3-Methoxy-2-[N-thiomorpholinyl]propionic acid, 2,6-dimethoxy-4-methylphenyl ester] |  | 42 |
| COCCN(C)C(COC)C(=O)Oc1c(OC)cc(C)cc1OC (stereo not shown) [Example 3l, 3-Methoxy-2-[N-(2-Methoxyethyl)methylamino]propionic acid, 2,6-dimethoxy-4-methylphenyl ester] |  | 58 |
| COCC(C(=O)Oc1c(OC)cc(C)cc1OC)N1CCCOCC1 (stereo not shown) [Example 3m, 2-[4-(Hexahydro-1-oxazepinyl)]-3-methoxypropionic acid, 2,6-dimethoxy-4-methylphenyl ester] | 31 |  |
| COCC(C(=O)Oc1c(OC)cc(C)cc1OC)N1CCCC1 (stereo not shown) [Example 3n, 3-Methoxy-2-[1-pyrrolidinyl]propionic acid, 2,6-dimethoxy-4-methylphenyl ester] |  | 34 |
| COCCCN(CCCOC)C(COC)C(=O)Oc1c(OC)cc(C)cc1OC (stereo not shown) [Example 3p, 2-[N-Bis(3-methoxypropyl)amino]-3-methoxypropionic acid, 2,6-dimethoxy-4-methylphenyl ester] | 46 |  |
| CCOCCN(CCOCC)C(COC)C(=O)Oc1c(OC)cc(C)cc1OC (stereo not shown) [Example 3q, 2-[N-Bis(2-ethoxyethyl)amino]-3-methoxypropionic acid, 2,6-dimethoxy-4-methylphenyl ester] | 23 |  |
| CCOCC(C(=O)Oc1c(OC)cccc1OC)N1CCCOCC1 (stereo not shown) [Example 3r, 3-Ethoxy-2-[4-(Hexahydro-1-oxazepinyl)]propionic acid, 2,6-dimethoxyphenyl ester] | 20 |  |
| COCCN(CCOC)C(COC)C(=O)Oc1c(OC)cc(C)cc1OC (stereo not shown) [Example 4a, 2-[N-Bis(2-methoxyethyl)amino]-3-methoxypropionic acid, 2,6-dimethoxy-4-methylphenyl ester] | 28 |  |

| Compound | HD50 (hypnotic dose50) [µmol/kg] | ED50 [µmol/kg] |
| --- | --- | --- |
| COCCC(C(=O)Oc1c(OC)cccc1OC)N1CCCOCC1 (stereo not shown) [Example 10a, 2-[4-(Hexahydro-1-oxazepinyl)]-4-methoxybutyric acid, 2,6-dimethoxyphenyl ester] | 15 |  |
| COCCC(C(=O)Oc1c(OC)cccc1OC)N1CCOCC1 (stereo not shown) [Example 10b, 4-Methoxy-2-[4-morpholinyl]butyric acid, 2,6-dimethoxyphenyl ester] |  | 38 |
| COCCC(C(=O)Oc1c(OC)cccc1OC)N1CC=CCC1 (stereo not shown) [Example 10c, 4-Methoxy-2-[1-(1,2,3,6-tetrahydropyridinyl)]butyric acid, 2,6-dimethoxyphenyl ester] | 22 |  |
| COCCC(C(=O)Oc1c(OC)cccc1OC)N1CCC(OC)CC1 (stereo not shown) [Example 10d, 4-Methoxy-2-[1-(4-methoxypiperidinyl)]butyric acid, 2,6-dimethoxyphenyl ester] | 21 |  |
| COCCC(C(=O)Oc1c(OC)cccc1OC)N1CCCCCC1 (stereo not shown) [Example 10e, 2-[1-(Hexahydroazepinyl)]-4-methoxybutyric acid, 2,6-dimethoxyphenyl ester] | 17 |  |
| COCCC(C(=O)Oc1c(OC)cccc1OC)N1CCCCC1 (stereo not shown) [Example 10f, 4-Methoxy-2-[1-piperidinyl]butyric acid, 2,6-dimethoxyphenyl ester] |  | 22 |
| CCOCCN(CCOCC)C(CCOC)C(=O)Oc1c(OC)cccc1OC (stereo not shown) [Example 10g, 2-[N-(Bis(2-ethoxyethyl)amino)]-4-methoxybutyric acid, 2,6-dimethoxyphenyl ester] | 28 |  |
| COCCC(C(=O)Oc1c(OC)cccc1OC)N(CCOC)CCOC (stereo not shown) [Example 10h, 2-[N-(Bis(2-methoxyethyl)amino)]-4-methoxybutyric acid, 2,6-dimethoxyphenyl ester] | 27 |  |
| COCCC(C(=O)Oc1c(OC)cc(C)cc1OC)N1CCOCC1 (stereo not shown) [Example 10i, 4-Methoxy-2-[4-morpholinyl]butyric acid, 2,6-dimethoxy-4-methylphenyl ester] |  | 36 |
| COCCC(C(=O)Oc1c(OC)cc(C)cc1OC)N1CCCOCC1 (stereo not shown) [Example 10j, 2-[4-(Hexahydro-1-oxazepinyl)]-4-methoxybutyric acid, 2,6-dimethoxy-4-methylphenyl ester] | 25 |  |
| COCCC(C(=O)Oc1c(OC)cc(C)cc1OC)N1CCC(OC)CC1 (stereo not shown) [Example 10k, 4-Methoxy-2-[1-(4-methoxypiperidinyl)]butyric acid, 2,6-dimethoxy4-methylphenyl ester] | 34 |  |
| COCCC(C(=O)Oc1c(OC)cc(C)cc1OC)N(CCOC)CCOC (stereo not shown) [Example 10l, 2-[N-(Bis(2-methoxyethyl)amino)]-4-methoxybutyric acid, 2,6-dimethoxy-4-methylphenyl ester] | 26 |  |
| CCOCCN(CCOCC)C(CCOC)C(=O)Oc1c(OC)cc(C)cc1OC (stereo not shown) [Example 10m, 2-[N-(Bis(2-ethoxyethyl)amino)]-4-methoxybutyric acid, 2,6-dimethoxy-4-methylphenyl ester] | 25 |  |
| COCCC(C(=O)Oc1c(OC)cc(C)cc1OC)N1CCCCCC1 (stereo not shown) [Example 10n, 2-[1-(Hexahydroazepinyl)]-4-methoxybutyric acid, 2,6-dimethoxy-4-methylphenyl ester] | 38 |  |
| CCOCCC(C(=O)Oc1c(OC)cccc1OC)N1CCOCC1 (stereo not shown) [Example 10o, 4-Ethoxy-2-[4-morpholinyl]butyric acid, 2,6-dimethoxyphenyl ester] |  | 36 |
